From patent US20240317723A1, “SUBSTITUTED AMINO AZA-HETEROARYL COMPOUNDS AS INHIBITORS OF THE HAEMATOPOIETIC PROGENITOR KINASE 1 (HPK1)” (priority 2021, published 2024)

Assays:
[1] = target: Lck (h) (Homo sapiens, UniProt P06239); assay: Lck Human STE Kinase Enzymatic Radiometric Assay; assay type: biochemical; settings: for Selectivity: selectivity for inhibition of HPK1 vs Lck; for IC50: radiometric, [gamma-33P]-ATP, Cdc2 peptide substrate, read-out: Lck IC50, nM Range*
Experimental: (b) Lck Human STE Kinase Enzymatic Radiometric Assay
Lck (h) is incubated with 50 mM Tris pH 7.5, 0.1 mM EGTA, 0.1 mM Na3VO4, 250 uM KVEKIGEGTYGVVYK (Cdc2 peptide), 10 mM MgAcetate and [gamma-33P]-ATP (specific activity and concentration as required). The reaction is initiated by the addition of the Mg/ATP mix. After incubation for 40 minutes at room temperature, the reaction is stopped by the addition of phosphoric acid to a concentration of 0.5%. 10 uL of the reaction is then spotted onto a P30 filtermat and washed four times for 4 minutes in 0.425% phosphoric acid and once in methanol prior to drying and scintillation counting. For more details on the kinase assay procedures see: Gao, Y. et. al.; Biochem J., 451 (2): 313-328, 2013.
In some embodiments the presence of substituents on monocyclic Cy^2 rings or when Cy^2 is a bicyclic ring (unsubstituted or substituted) provides compounds with improved selectivity for inhibition of HPK1 vs Lck (see, for example, Table 3 and Table 4).

[2] = target: T1, Recombinant (1-346) HPK1 (h) (Homo sapiens, UniProt Q92918); assay: HPK1 Human STE Kinase Enzymatic Radiometric Assay; assay type: biochemical; settings: [gamma-33P]-ATP, myelin basic protein substrate, read-out: HPK1 IC50 nM Range*
T1 construct: Recombinant (1-346) HPK1 (h) is incubated with 8 mM MOPS pH 7.0
T1 sequence (Q92918 1-346): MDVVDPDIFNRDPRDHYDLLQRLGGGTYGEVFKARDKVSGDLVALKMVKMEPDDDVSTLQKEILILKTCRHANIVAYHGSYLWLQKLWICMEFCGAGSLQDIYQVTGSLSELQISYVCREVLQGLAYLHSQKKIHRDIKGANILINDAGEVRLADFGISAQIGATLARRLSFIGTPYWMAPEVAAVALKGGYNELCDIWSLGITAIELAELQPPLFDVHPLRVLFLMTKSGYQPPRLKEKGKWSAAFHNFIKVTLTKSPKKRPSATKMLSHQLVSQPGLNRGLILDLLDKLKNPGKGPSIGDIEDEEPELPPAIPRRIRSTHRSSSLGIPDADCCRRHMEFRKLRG
Experimental: (a) HPK1 Human STE Kinase Enzymatic Radiometric Assay
A stock solution of 10 mM of test compound is prepared in DMSO. The compound plate was prepared by 3-fold and 9-point serial dilutions. Recombinant (1-346) HPK1 (h) is incubated with 8 mM MOPS pH 7.0, 0.2 mM EDTA, 0.33 mg/mL myelin basic protein, 10 mM MgAcetate and [gamma-33P]-ATP (specific activity and concentration as required). The reaction is initiated by the addition of the Mg/ATP mix. After incubation for 40 minutes at RT, the reaction is stopped by the addition of phosphoric acid to a concentration of 0.5%. 10 uL of the reaction is then spotted onto a P30 filtermat and washed four times for 4 minutes in 0.425% phosphoric acid and once in methanol prior to drying and scintillation counting. For more details of kinase assay protocols, see: Gao, Y. et. al.; Biochem J. 451 (2): 313-328, 2013.

Chain of Lck (h) (P06239 whole entry): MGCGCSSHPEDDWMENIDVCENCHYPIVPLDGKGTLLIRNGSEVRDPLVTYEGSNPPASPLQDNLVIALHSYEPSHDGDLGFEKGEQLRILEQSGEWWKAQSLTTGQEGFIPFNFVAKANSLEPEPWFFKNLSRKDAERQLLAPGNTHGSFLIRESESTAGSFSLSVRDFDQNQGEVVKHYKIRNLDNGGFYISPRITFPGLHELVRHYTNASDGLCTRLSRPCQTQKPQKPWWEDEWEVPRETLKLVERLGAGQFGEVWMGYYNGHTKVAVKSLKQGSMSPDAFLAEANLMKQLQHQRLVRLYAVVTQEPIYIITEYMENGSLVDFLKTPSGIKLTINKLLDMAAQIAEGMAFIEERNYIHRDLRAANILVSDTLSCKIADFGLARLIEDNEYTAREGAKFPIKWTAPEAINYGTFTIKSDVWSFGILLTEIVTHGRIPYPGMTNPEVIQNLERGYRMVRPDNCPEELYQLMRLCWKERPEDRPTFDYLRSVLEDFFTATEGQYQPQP

Structure (SMILES) | Selectivity [1] | IC50 [2] [nM] | IC50 [1] [nM]
Nc1ncc(-c2ccc(N3CCOCC3)cc2)nc1-c1ccc2c(c1)CCNC2=O [Comparator 1, 6-(3-amino-6-(4-morpholinophenyl)pyrazin-2-yl)-3,4-dihydroisoquinolin-1(2H)-one, reference compound] | 31 |  | 
Nc1ncc(-c2ccc(N3CCOCC3)c(F)c2F)nc1-c1ccc2c(c1)CCNC2=O [Comparator 2, 6-(3-amino-6-(2,3-difluoro-4-morpholinophenyl)pyrazin-2-yl)-3,4-dihydroisoquinolin-1(2H)-one, reference compound] | 930 |  | 
Nc1ncc(-c2ccc(N3CCOCC3)cc2F)nc1-c1ccc2c(c1)CCNC2=O [Comparator 4, 6-(3-amino-6-(2-fluoro-4-morpholinophenyl)pyrazin-2-yl)-3,4-dihydroisoquinolin-1(2H)-one, reference compound] | 405 |  | 
CN1CCN(c2ccc(-c3cnc(N)c(-c4ccc5c(c4)CCNC5=O)n3)cc2)CC1 [Example I-1, 6-(3-amino-6-(4-(4-methylpiperazin-1-yl)phenyl)pyrazin-2-yl)-3,4-dihydroisoquinolin-1(2H)-one] |  | 0.1 to 5 | 6 to 10
CN1CCN(c2ccc(-c3cnc(N)c(-c4ccc5c(c4)C(C)(C)NC5=O)n3)cc2)CC1 [Example I-2, 5-(3-amino-6-(4-(4-methylpiperazin-1-yl)phenyl)pyrazin-2-yl)-3,3-dimethylisoindolin-1-one] |  | 0.1 to 5 | 6 to 10
CC(C)N1CCN(c2ccc(-c3cnc(N)c(-c4ccc5c(c4)CCNC5=O)n3)cc2)CC1 [Example I-3, 6-(3-amino-6-(4-(4-isopropylpiperazin-1-yl)phenyl)pyrazin-2-yl)-3,4-dihydroisoquinolin-1(2H)-one] |  | 0.1 to 5 | 6 to 10
CN1CCN(c2ccc(-c3cnc(N)c(-c4ccc5c(c4)CCNC5=O)n3)cc2F)CC1 [Example I-4, 6-(3-amino-6-(3-fluoro-4-(4-methylpiperazin-1-yl)phenyl)pyrazin-2-yl)-3,4-dihydroisoquinolin-1(2H)-one] |  | 0.1 to 5 | 6 to 10
CN1CCN(c2ccc(-c3cnc(N)c(-c4cc(F)c5c(c4)CCNC5=O)n3)cc2)CC1 [Example I-5, 6-(3-amino-6-(4-(4-methylpiperazin-1-yl)phenyl)pyrazin-2-yl)-8-fluoro-3,4-dihydroisoquinolin-1(2H)-one] |  | 0.1 to 5 | 6 to 10
Nc1ncc(-c2ccc(N3CCC(O)CC3)cc2)nc1-c1ccc2c(c1)CCNC2=O [Example I-6, 6-(3-amino-6-(4-(4-hydroxypiperidin-1-yl)phenyl)pyrazin-2-yl)-3,4-dihydroisoquinolin-1(2H)-one] |  | 0.1 to 5 | 11 to 20
CC(C)[C@@H]1CN(c2ccc(-c3cnc(N)c(-c4ccc5c(c4)CCNC5=O)n3)cc2)CCO1 [Example I-7, (R)-6-(3-amino-6-(4-(2-isopropylmorpholino)phenyl)pyrazin-2-yl)-3,4-dihydroisoquinolin-1(2H)-one] |  | 0.1 to 5 | 11 to 20
CC(C)[C@H]1CN(c2ccc(-c3cnc(N)c(-c4ccc5c(c4)CCNC5=O)n3)cc2)CCO1 [Example I-8, (S)-6-(3-amino-6-(4-(2-isopropylmorpholino)phenyl)pyrazin-2-yl)-3,4-dihydroisoquinolin-1(2H)-one] | 170 | 0.1 to 5 | 11 to 20
CN([C@H]1CCN(c2ccc(-c3cnc(N)c(-c4ccc5c(c4)CCNC5=O)n3)cc2)C1)S(C)(=O)=O [Example I-10, (S)-N-(1-(4-(5-amino-6-(1-oxo-1,2,3,4-tetrahydroisoquinolin-6-yl)pyrazin-2-yl)phenyl)pyrrolidin-3-yl)-N-methylmethanesulfonamide] |  | 0.1 to 5 | 11 to 20
C[C@@H]1COCCN1c1ccc(-c2cnc(N)c(-c3ccc4c(c3)CCNC4=O)n2)cc1 [Example I-11, (R)-6-(3-amino-6-(4-(3-methylmorpholino)phenyl)pyrazin-2-yl)-3,4-dihydroisoquinolin-1(2H)-one] | 170 | 0.1 to 5 | 11 to 20
CN1CCN(c2ccc(-c3cnc(N)c(-c4cc5c(cc4F)C(=O)NCC5)n3)cc2)CC1 [Example I-12, 6-(3-amino-6-(4-(4-methylpiperazin-1-yl)phenyl)pyrazin-2-yl)-7-fluoro-3,4-dihydroisoquinolin-1(2H)-one] |  | 0.1 to 5 | 11 to 20
CC(C)[C@@H]1CN(c2ccc(-c3cnc(N)c(-c4ccc5c(c4)CCNC5=O)n3)c(F)c2)CCO1 [Example I-13, (R)-6-(3-amino-6-(2-fluoro-4-(2-isopropylmorpholino)phenyl)pyrazin-2-yl)-3,4-dihydroisoquinolin-1(2H)-one] | 2740 | 0.1 to 5 | 21 to 200
CN1CCN(c2ccc(-c3cc(-c4ccc5c(c4)CCNC5=O)c(N)nn3)cc2)CC1 [Example I-49, 6-(3-amino-6-(4-(4-methylpiperazin-1-yl)phenyl)pyridazin-4-yl)-3,4-dihydroisoquinolin-1(2H)-one] |  | 21 to 200 | 
Cc1cc2cc(-c3nc(-c4ccc(N5CCN(C)CC5)cc4)cnc3N)ccc2c(=O)[nH]1 [Example I-51, 6-(3-amino-6-(4-(4-methylpiperazin-1-yl)phenyl)pyrazin-2-yl)-3-methylisoquinolin-1(2H)-one] |  | 0.1 to 5 | 
CC(C)N1CCN(c2ccc(-c3cnc(N)c(-c4ccc5c(c4)CCNC5=O)n3)cc2)[C@H](C)C1 [Example I-53, (R)-6-(3-amino-6-(4-(4-isopropyl-2-methylpiperazin-1-yl)phenyl)pyrazin-2-yl)-3,4-dihydroisoquinolin-1(2H)-one] |  | 0.1 to 5 | 
C[C@@H]1CN(C)CCN1c1ccc(-c2cnc(N)c(-c3ccc4c(c3)CCNC4=O)n2)cc1 [Example I-54, (R)-6-(3-amino-6-(4-(2,4-dimethylpiperazin-1-yl)phenyl)pyrazin-2-yl)-3,4-dihydroisoquinolin-1(2H)-one] |  | 0.1 to 5 | 
C[C@@H]1CN(c2ccc(-c3cnc(N)c(-c4ccc5c(c4)CCNC5=O)n3)cc2)C[C@H](C)N1C [Example I-55, 6-(3-amino-6-(4-((3R,5S)-3,4,5-trimethylpiperazin-1-yl)phenyl)pyrazin-2-yl)-3,4-dihydroisoquinolin-1(2H)-one] |  | 0.1 to 5 | 
CCN1CCN(c2ccc(-c3cnc(N)c(-c4ccc5c(c4)CCNC5=O)n3)cc2)CC1 [Example I-56, 6-(3-amino-6-(4-(4-ethylpiperazin-1-yl)phenyl)pyrazin-2-yl)-3,4-dihydroisoquinolin-1(2H)_-one] |  | 0.1 to 5 | 
Cc1nc2cc(-c3nc(-c4ccc(N5CCN(C)CC5)cc4)cnc3N)ccc2c(=O)[nH]1 [Example I-57, 7-(3-amino-6-(4-(4-methylpiperazin-1-yl)phenyl)pyrazin-2-yl)-2-methylquinazolin-4(3H)-one] |  | 6 to 10 | 
CN(C)Cc1cc(C2CCOCC2)ccc1-c1cnc(N)c(-c2cc3c(cc2F)C(=O)NCC3)n1 [II-1, 6-(3-amino-6-(2-((dimethylamino)methyl)-4-(tetrahydro-2H-pyran-4-yl)phenyl)pyrazin-2-yl)-7-fluoro-3,4-dihydroisoquinolin-1(2H)-one] |  | 6 to 10 | 
Cc1c[nH]c(=O)c2cc(F)c(-c3nc(-c4ccc(C5CCOCC5)c(CN(C)C)c4)cnc3N)cc12 [II-2, 6-(3-amino-6-(3-((dimethylamino)methyl)-4-(tetrahydro-2H-pyran-4-yl)phenyl)pyrazin-2-yl)-7-fluoro-4-methylisoquinolin-1(2H)-one] |  | 0.1 to 5 | 
Cc1cc2cc(-c3nc(-c4ccc(C5CCOCC5)c(CN(C)C)c4)cnc3N)cc(F)c2c(=O)[nH]1 [II-4, 6-(3-amino-6-(3-((dimethylamino)methyl)-4-(tetrahydro-2H-pyran-4-yl)phenyl)pyrazin-2-yl)-8-fluoro-3-methylisoquinolin-1(2H)-one] |  | 0.1 to 5 | 
Cc1[nH]c(=O)c2c(F)cc(-c3nc(-c4ccc(C5CCOCC5)c(CN(C)C)c4)cnc3N)cc2c1F [II-5, 6-(3-amino-6-(3-((dimethylamino)methyl)-4-(tetrahydro-2H-pyran-4-yl)phenyl)pyrazin-2-yl)-4,8-difluoro-3-methylisoquinolin-1(2H)-one] |  | 0.1 to 5 | 
